# Measurements: ChEMBL document CHEMBL5696441 (Nat Chem Biol, 2011)
# How the values were obtained:
# [1] = biological target: Cyclin-dependent kinase-like 5 (Homo sapiens) (UniProt O76039); assay: Inhibition of CDKL5 (unknown origin) assessed as remaining activity at 1 uM by Kinome scan method relative to control
# [2] = biological target: Serine/threonine-protein kinase MARK1 (Homo sapiens) (UniProt Q9P0L2); assay: Inhibition of MARK1 (unknown origin) assessed as remaining activity at 1 uM by Kinome scan method relative to control
# [3] = biological target: NT-3 growth factor receptor (Homo sapiens) (UniProt Q16288); assay: Inhibition of TRKC (unknown origin) assessed as remaining activity at 1 uM by Kinome scan method relative to control
# [4] = biological target: Fibroblast growth factor receptor 2 (Homo sapiens) (UniProt P21802); assay: Inhibition of FGFR2 (unknown origin) assessed as remaining activity at 1 uM by Kinome scan method relative to control
# [5] = biological target: Mitogen-activated protein kinase 14 (Homo sapiens) (UniProt Q16539); assay: Inhibition of non-phosphorylated human N-terminal His-P38alpha overexpressed in Escherichia coli BL21 (DE3) assessed as remaining activity at 1 uM by Kinome scan method relative to control
# Chain of Mitogen-activated protein kinase 14 (Homo sapiens) (Q16539 whole entry): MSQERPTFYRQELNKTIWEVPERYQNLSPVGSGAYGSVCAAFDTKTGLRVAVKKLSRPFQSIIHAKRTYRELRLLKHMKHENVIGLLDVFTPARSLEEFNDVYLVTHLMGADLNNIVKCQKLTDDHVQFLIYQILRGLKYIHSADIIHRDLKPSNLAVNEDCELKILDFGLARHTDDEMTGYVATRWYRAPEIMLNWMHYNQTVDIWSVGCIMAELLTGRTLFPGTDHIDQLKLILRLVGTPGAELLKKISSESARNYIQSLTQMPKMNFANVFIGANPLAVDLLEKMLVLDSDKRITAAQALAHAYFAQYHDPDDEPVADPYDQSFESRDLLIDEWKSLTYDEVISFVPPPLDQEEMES
# [6] = biological target: Dual specificity mitogen-activated protein kinase kinase 3 (Homo sapiens) (UniProt P46734); assay: Inhibition of MEK3 (unknown origin) assessed as remaining activity at 1 uM by Kinome scan method relative to control
# Chain of Dual specificity mitogen-activated protein kinase kinase 3 (Homo sapiens) (P46734 whole entry): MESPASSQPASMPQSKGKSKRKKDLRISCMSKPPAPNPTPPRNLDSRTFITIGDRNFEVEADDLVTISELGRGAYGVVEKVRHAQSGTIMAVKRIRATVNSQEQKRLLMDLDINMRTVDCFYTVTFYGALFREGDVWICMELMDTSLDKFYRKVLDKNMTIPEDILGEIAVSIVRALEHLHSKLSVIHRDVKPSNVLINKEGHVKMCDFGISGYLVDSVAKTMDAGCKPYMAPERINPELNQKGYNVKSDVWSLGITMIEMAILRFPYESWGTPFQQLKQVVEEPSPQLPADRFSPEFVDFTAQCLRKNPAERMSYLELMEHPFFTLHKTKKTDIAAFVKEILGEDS
# [7] = biological target: Misshapen-like kinase 1 (Homo sapiens) (UniProt Q8N4C8); assay: Inhibition of MINK (unknown origin) assessed as remaining activity at 1 uM by Kinome scan method relative to control
# [8] = biological target: Casein kinase II subunit alpha (Homo sapiens) (UniProt P68400); assay: Inhibition of CSNK2A1 (unknown origin) assessed as remaining activity at 1 uM by Kinome scan method relative to control
# [9] = biological target: Serine/threonine-protein kinase BRSK2 (Homo sapiens) (UniProt Q8IWQ3); assay: Inhibition of BRSK2 (unknown origin) assessed as remaining activity at 1 uM by Kinome scan method relative to control
# Chain of Serine/threonine-protein kinase BRSK2 (Homo sapiens) (Q8IWQ3 whole entry): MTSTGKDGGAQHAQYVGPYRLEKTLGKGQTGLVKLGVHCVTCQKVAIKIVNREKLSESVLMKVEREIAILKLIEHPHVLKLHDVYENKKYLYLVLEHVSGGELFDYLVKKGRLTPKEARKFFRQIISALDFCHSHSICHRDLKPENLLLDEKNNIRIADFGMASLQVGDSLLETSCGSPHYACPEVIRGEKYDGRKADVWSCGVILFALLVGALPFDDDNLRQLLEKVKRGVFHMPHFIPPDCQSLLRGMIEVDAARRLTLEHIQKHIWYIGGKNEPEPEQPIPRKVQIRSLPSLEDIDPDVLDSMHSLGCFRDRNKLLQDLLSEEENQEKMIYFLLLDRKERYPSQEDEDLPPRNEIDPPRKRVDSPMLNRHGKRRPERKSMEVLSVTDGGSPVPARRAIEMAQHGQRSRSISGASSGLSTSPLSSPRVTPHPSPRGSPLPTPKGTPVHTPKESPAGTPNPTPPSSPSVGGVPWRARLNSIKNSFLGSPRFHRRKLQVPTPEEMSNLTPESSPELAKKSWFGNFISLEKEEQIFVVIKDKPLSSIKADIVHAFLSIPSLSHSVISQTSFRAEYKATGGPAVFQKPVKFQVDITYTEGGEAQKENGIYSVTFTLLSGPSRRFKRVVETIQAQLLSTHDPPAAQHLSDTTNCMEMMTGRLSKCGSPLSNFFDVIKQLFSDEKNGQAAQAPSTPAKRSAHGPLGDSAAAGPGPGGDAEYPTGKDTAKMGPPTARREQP
# [10] = biological target: Serine/threonine-protein kinase RIO2 (Homo sapiens) (UniProt Q9BVS4); assay: Inhibition of RIOK2 (unknown origin) assessed as remaining activity at 1 uM by Kinome scan method relative to control
# [11] = biological target: 5'-AMP-activated protein kinase catalytic subunit alpha-2 (Homo sapiens) (UniProt P54646); assay: Inhibition of AMPK-alpha2 (unknown origin) assessed as remaining activity at 1 uM by Kinome scan method relative to control
# Chain of 5'-AMP-activated protein kinase catalytic subunit alpha-2 (Homo sapiens) (P54646 whole entry, looked up): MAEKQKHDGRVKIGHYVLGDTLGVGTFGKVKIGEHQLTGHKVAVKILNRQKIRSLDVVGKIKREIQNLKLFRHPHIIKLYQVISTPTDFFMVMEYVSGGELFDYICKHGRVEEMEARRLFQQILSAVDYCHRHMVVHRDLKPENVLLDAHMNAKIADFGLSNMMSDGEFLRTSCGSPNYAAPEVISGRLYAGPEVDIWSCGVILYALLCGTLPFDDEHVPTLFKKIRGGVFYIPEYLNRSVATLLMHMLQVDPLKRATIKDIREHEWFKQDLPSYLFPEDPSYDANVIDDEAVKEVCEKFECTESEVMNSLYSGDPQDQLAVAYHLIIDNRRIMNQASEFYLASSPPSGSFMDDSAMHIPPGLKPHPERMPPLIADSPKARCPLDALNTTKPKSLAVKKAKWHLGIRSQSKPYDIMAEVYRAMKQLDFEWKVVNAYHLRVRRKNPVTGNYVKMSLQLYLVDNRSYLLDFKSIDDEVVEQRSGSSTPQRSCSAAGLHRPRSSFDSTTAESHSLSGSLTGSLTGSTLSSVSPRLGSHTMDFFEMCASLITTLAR
# [12] = biological target: Tyrosine-protein kinase receptor Tie-1 (Homo sapiens) (UniProt P35590); assay: Inhibition of TIE1 (unknown origin) assessed as remaining activity at 1 uM by Kinome scan method relative to control
# [13] = biological target: Macrophage-stimulating protein receptor (Homo sapiens) (UniProt Q04912); assay: Inhibition of MST1R (unknown origin) assessed as remaining activity at 1 uM by Kinome scan method relative to control
# [14] = biological target: Insulin receptor (Homo sapiens) (UniProt P06213); assay: Inhibition of INSR (unknown origin) assessed as remaining activity at 1 uM by Kinome scan method relative to control
# [15] = biological target: T1, Serine/threonine-protein kinase 17A (Homo sapiens) (UniProt Q9UEE5); assay: Inhibition of DRAK1 (unknown origin) assessed as remaining activity at 1 uM by Kinome scan method relative to control
# T1 sequence (whole entry): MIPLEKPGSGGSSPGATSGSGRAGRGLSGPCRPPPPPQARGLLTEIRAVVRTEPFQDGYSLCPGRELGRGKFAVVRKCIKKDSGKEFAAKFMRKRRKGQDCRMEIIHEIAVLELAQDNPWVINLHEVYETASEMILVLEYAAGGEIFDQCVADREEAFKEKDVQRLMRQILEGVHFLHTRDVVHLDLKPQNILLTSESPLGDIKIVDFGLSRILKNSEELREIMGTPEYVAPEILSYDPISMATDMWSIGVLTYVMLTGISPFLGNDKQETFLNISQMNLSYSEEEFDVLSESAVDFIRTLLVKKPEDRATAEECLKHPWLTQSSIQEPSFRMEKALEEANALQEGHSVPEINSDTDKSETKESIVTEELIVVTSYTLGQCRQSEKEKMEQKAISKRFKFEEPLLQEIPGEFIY
# [16] = biological target: Casein kinase I isoform gamma-1 (Homo sapiens) (UniProt Q9HCP0); assay: Inhibition of CSNK1G1 (unknown origin) assessed as remaining activity at 1 uM by Kinome scan method relative to control
# Chain of Casein kinase I isoform gamma-1 (Homo sapiens) (Q9HCP0 whole entry, looked up, canonical isoform): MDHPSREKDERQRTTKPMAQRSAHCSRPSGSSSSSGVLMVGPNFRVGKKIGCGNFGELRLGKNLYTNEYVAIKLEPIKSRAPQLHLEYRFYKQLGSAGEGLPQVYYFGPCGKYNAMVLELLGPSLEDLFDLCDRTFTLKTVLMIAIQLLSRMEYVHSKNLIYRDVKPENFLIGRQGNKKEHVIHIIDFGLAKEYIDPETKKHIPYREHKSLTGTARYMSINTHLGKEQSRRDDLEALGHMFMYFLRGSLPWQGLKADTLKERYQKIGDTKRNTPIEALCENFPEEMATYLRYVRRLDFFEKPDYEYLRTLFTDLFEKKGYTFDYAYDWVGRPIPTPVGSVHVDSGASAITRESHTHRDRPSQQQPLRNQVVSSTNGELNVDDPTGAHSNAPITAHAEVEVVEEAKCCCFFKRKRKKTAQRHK
# [17] = biological target: Myosin light chain kinase 2, skeletal/cardiac muscle (Homo sapiens) (UniProt Q9H1R3); assay: Inhibition of MYLK2 (unknown origin) assessed as remaining activity at 1 uM by Kinome scan method relative to control
# Chain of Myosin light chain kinase 2, skeletal/cardiac muscle (Homo sapiens) (Q9H1R3 whole entry): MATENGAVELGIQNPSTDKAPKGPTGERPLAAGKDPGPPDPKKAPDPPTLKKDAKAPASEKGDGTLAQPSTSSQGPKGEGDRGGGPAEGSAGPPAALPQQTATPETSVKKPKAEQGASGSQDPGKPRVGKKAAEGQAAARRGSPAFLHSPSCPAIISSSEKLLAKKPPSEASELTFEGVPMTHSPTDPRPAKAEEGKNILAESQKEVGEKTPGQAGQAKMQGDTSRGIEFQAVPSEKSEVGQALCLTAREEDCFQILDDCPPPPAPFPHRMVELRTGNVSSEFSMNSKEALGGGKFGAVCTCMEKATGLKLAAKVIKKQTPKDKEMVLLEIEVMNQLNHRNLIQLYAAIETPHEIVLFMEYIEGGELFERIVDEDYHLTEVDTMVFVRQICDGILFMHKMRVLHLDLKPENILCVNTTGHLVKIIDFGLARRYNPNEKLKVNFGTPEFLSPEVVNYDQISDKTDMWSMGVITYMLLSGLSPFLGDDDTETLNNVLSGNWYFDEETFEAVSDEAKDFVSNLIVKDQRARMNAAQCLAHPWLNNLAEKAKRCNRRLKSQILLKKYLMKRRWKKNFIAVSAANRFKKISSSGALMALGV
# [18] = biological target: Microtubule-associated serine/threonine-protein kinase 1 (Homo sapiens) (UniProt Q9Y2H9); assay: Inhibition of MAST1 (unknown origin) assessed as remaining activity at 1 uM by Kinome scan method relative to control
# [19] = biological target: Epithelial discoidin domain-containing receptor 1 (Homo sapiens) (UniProt Q08345); assay: Inhibition of DDR1 (unknown origin) assessed as remaining activity at 1 uM by Kinome scan method relative to control
# [20] = biological target: Cyclin-dependent kinase 18 (Homo sapiens) (UniProt Q07002); assay: Inhibition of PCTK3 (unknown origin) assessed as remaining activity at 1 uM by Kinome scan method relative to control
# [21] = biological target: Mitogen-activated protein kinase kinase kinase 12 (Homo sapiens) (UniProt Q12852); assay: Inhibition of DLK (unknown origin) assessed as remaining activity at 1 uM by Kinome scan method relative to control
# Chain of Mitogen-activated protein kinase kinase kinase 12 (Homo sapiens) (Q12852 whole entry): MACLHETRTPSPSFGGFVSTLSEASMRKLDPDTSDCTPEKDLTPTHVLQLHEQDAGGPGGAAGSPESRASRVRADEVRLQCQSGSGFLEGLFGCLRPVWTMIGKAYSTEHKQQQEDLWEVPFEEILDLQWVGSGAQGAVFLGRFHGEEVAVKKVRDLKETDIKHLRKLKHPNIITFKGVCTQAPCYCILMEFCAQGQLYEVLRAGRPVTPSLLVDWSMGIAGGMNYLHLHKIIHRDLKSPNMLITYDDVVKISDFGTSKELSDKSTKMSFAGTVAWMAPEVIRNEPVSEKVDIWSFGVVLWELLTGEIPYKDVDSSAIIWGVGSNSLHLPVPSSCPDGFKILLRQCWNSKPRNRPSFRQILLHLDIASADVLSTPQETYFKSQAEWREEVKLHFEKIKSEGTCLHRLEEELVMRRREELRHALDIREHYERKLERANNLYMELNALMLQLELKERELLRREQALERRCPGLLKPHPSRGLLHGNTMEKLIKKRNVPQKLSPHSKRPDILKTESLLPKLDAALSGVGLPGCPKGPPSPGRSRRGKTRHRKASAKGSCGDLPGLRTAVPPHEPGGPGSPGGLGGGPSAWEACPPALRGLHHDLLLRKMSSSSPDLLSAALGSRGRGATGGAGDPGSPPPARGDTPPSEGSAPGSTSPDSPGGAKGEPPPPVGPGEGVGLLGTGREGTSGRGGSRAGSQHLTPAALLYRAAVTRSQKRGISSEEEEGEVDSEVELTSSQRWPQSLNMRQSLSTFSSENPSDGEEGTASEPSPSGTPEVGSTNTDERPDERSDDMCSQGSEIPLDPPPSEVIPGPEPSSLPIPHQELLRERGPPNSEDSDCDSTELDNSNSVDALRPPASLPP
# Chain of Cyclin-dependent kinase-like 5 (Homo sapiens) (O76039 whole entry): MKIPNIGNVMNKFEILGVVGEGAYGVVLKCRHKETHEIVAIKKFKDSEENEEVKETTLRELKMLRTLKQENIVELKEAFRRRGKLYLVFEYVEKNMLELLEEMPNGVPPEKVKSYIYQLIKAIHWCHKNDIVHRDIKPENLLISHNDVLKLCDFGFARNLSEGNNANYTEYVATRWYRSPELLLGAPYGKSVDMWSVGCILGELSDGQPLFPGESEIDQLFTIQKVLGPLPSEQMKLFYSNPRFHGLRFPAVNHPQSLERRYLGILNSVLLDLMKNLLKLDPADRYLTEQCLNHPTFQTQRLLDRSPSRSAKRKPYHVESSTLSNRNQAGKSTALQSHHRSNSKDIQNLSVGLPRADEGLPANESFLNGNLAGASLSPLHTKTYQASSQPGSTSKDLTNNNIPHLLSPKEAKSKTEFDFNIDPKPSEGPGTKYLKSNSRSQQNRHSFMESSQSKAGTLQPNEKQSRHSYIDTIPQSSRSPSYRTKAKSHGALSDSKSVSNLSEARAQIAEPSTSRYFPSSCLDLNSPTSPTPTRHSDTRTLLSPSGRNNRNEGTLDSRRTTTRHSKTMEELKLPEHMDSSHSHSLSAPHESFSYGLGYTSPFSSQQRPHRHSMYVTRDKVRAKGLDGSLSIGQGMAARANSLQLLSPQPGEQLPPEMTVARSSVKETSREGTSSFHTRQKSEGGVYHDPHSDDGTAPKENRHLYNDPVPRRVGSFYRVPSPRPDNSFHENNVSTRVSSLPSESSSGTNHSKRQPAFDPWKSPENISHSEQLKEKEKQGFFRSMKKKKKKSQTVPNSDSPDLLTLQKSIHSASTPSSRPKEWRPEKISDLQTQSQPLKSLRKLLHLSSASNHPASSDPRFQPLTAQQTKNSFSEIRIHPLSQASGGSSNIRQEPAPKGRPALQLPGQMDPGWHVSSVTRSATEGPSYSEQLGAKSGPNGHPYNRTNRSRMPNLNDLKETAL
Compound,Activity [1],Activity [2],Activity [3],Activity [4],Activity [5],Activity [6],Activity [7],Activity [8],Activity [9],Activity [10],Activity [11],Activity [12],Activity [13],Activity [14],Activity [15],Activity [16],Activity [17],Activity [18],Activity [19],Activity [20],further results
Nc1ccccc1Nc1ccc2c(c1)CCc1ccccc1C2=O,96%,88%,86%,91%,0.2%,97%,81%,86%,91%,85%,95%,96%,97%,83%,92%,79%,87%,79%,80%,94%,Activity [21]: 98%
O=C1c2ccc(Nc3ccc(F)cc3F)cc2CCc2ccc(OC[C@H](O)CO)cc21 [Skepinone-L],100%,93%,100%,98%,0.2%,95%,100%,96%,94%,81%,100%,100%,79%,99%,100%,90%,90%,85%,85%,78%,Activity [21]: 94%
